According to the NIST ThermoML archive (doi:10.1021/je060271a):

Conditions: 303.15 K, Liquid, Vibrating tube method

CCCCC(=O)OCC(COC(=O)CCCC)(COC(=O)CCCC)COC(=O)CCCC [pentaerythritol tetrapentanoate]
Conditions | mass density [kg/m3]
13763 kPa | 1019.6
13796 kPa | 1019.5
13829 kPa | 1019.6
13863 kPa | 1019.6
13902 kPa | 1019.7
13936 kPa | 1019.7
13971 kPa | 1019.7
14011 kPa | 1019.6
14045 kPa | 1019.6
14080 kPa | 1019.8
14120 kPa | 1019.8
14154 kPa | 1019.7
14189 kPa | 1019.8
14231 kPa | 1019.8
14265 kPa | 1019.9
14300 kPa | 1019.8
14344 kPa | 1019.8
14378 kPa | 1020
14414 kPa | 1019.9
14458 kPa | 1019.9
14494 kPa | 1020
14532 kPa | 1020
14574 kPa | 1020.1
14612 kPa | 1020.1
14649 kPa | 1020.1
14687 kPa | 1019.9
14731 kPa | 1020.2
14769 kPa | 1020.1
14808 kPa | 1020.2
14853 kPa | 1020.2
14892 kPa | 1020.2
14933 kPa | 1020.3
14974 kPa | 1020.3
15014 kPa | 1020.2
15058 kPa | 1020.3
15098 kPa | 1020.3
15146 kPa | 1020.4
15187 kPa | 1020.4
15226 kPa | 1020.4
15275 kPa | 1020.5
15316 kPa | 1020.3
15358 kPa | 1020.6
15400 kPa | 1020.5
15450 kPa | 1020.5
15495 kPa | 1020.6
15540 kPa | 1020.6
15586 kPa | 1020.7
15638 kPa | 1020.7
15671 kPa | 1020.6
15699 kPa | 1020.6
15733 kPa | 1020.9
15763 kPa | 1020.8
15791 kPa | 1020.7
15826 kPa | 1020.8
15856 kPa | 1020.8
15887 kPa | 1020.7
15921 kPa | 1020.8
15952 kPa | 1020.9
15981 kPa | 1021
16011 kPa | 1020.9
16047 kPa | 1020.9
16078 kPa | 1021.1
16109 kPa | 1021
16146 kPa | 1020.9
16177 kPa | 1021
16215 kPa | 1021
16248 kPa | 1021.1
16278 kPa | 1021
16303 kPa | 1021.1
16331 kPa | 1021.1
16354 kPa | 1021.1
16378 kPa | 1021
16406 kPa | 1021.2
16430 kPa | 1021
16454 kPa | 1021.3
16479 kPa | 1021.2
16508 kPa | 1021.2
16532 kPa | 1021.2
16556 kPa | 1021.2
16585 kPa | 1021.3
16610 kPa | 1021.3
16633 kPa | 1021.2
16663 kPa | 1021.4
16688 kPa | 1021.3
16712 kPa | 1021.3
16737 kPa | 1021.4
16765 kPa | 1021.3
16791 kPa | 1021.4
16815 kPa | 1021.3
16845 kPa | 1021.5
16869 kPa | 1021.5
16898 kPa | 1021.4
16924 kPa | 1021.4
16949 kPa | 1021.4
16980 kPa | 1021.5
17005 kPa | 1021.5
17032 kPa | 1021.6
17057 kPa | 1021.4
17088 kPa | 1021.6
17112 kPa | 1021.6
17144 kPa | 1021.6
17170 kPa | 1021.5
17196 kPa | 1021.7
17222 kPa | 1021.6
17253 kPa | 1021.6
17279 kPa | 1021.5
17310 kPa | 1021.7
17337 kPa | 1021.7
17364 kPa | 1021.7
17396 kPa | 1021.8
17422 kPa | 1021.8
17449 kPa | 1021.8
17476 kPa | 1021.8
17509 kPa | 1021.7
17535 kPa | 1021.7
17563 kPa | 1021.8
17596 kPa | 1021.8
17623 kPa | 1021.8
17656 kPa | 1022
17684 kPa | 1022
17713 kPa | 1021.9
17742 kPa | 1021.9
17771 kPa | 1021.9
17800 kPa | 1021.9
17834 kPa | 1021.9
17862 kPa | 1022
17892 kPa | 1022
17920 kPa | 1022
17954 kPa | 1022.1
17983 kPa | 1022.1
18012 kPa | 1022.1
18047 kPa | 1022.2
18076 kPa | 1022.1
18105 kPa | 1022.1
18142 kPa | 1022.1
18171 kPa | 1022.2
18200 kPa | 1022.2
18230 kPa | 1022.1
18265 kPa | 1022.3
18295 kPa | 1022.3
18325 kPa | 1022.2
18360 kPa | 1022.2
18390 kPa | 1022.2
18421 kPa | 1022.4
18457 kPa | 1022.4
18488 kPa | 1022.2
18520 kPa | 1022.4
18551 kPa | 1022.4
18587 kPa | 1022.4
18618 kPa | 1022.4
18650 kPa | 1022.6
18687 kPa | 1022.5
18717 kPa | 1022.5
18749 kPa | 1022.7
18787 kPa | 1022.6
18819 kPa | 1022.6
18850 kPa | 1022.5
18887 kPa | 1022.5
18919 kPa | 1022.7
18951 kPa | 1022.6
18990 kPa | 1022.6
19023 kPa | 1022.8
19056 kPa | 1022.6
19094 kPa | 1022.8
19127 kPa | 1022.7
19159 kPa | 1022.9
19198 kPa | 1022.9
19232 kPa | 1022.8
19265 kPa | 1022.8
19304 kPa | 1022.8
19338 kPa | 1022.9
19372 kPa | 1023
19412 kPa | 1022.9
19446 kPa | 1022.9
19480 kPa | 1023
19515 kPa | 1023
19556 kPa | 1023
19590 kPa | 1023.1
19630 kPa | 1023
19702 kPa | 1023.1
19736 kPa | 1023.1
19778 kPa | 1023.2
19813 kPa | 1023.2
19856 kPa | 1023.2
19893 kPa | 1023.1
19930 kPa | 1023.2
19968 kPa | 1023.2
20013 kPa | 1023.3
20051 kPa | 1023.4
20090 kPa | 1023.2
20134 kPa | 1023.3
20161 kPa | 1023.4
20186 kPa | 1023.3
20215 kPa | 1023.3
20240 kPa | 1023.4
20265 kPa | 1023.5
20290 kPa | 1023.6
20321 kPa | 1023.4
20346 kPa | 1023.4
20370 kPa | 1023.5
20396 kPa | 1023.5
20425 kPa | 1023.6
20451 kPa | 1023.5
20481 kPa | 1023.6
20506 kPa | 1023.5
20532 kPa | 1023.6
20561 kPa | 1023.6
20587 kPa | 1023.6
20613 kPa | 1023.7
20644 kPa | 1023.6
20671 kPa | 1023.6
20697 kPa | 1023.6
20723 kPa | 1023.7
20754 kPa | 1023.6
20780 kPa | 1023.7
20806 kPa | 1023.8
20837 kPa | 1023.8
20864 kPa | 1023.9
20890 kPa | 1023.7
20920 kPa | 1023.8
20947 kPa | 1023.7
20974 kPa | 1023.8
21007 kPa | 1023.7
21030 kPa | 1023.9
21062 kPa | 1023.9
21089 kPa | 1023.8
21122 kPa | 1023.8
21149 kPa | 1023.9
21176 kPa | 1024
21208 kPa | 1024
21236 kPa | 1024
21263 kPa | 1023.8
21291 kPa | 1024
21324 kPa | 1024.1
21351 kPa | 1024.1
21384 kPa | 1024.1
21412 kPa | 1024
21440 kPa | 1024.1
21472 kPa | 1024.1
21500 kPa | 1024.2
21528 kPa | 1024.1
21557 kPa | 1024.1
21593 kPa | 1024.2
21622 kPa | 1024.2
21658 kPa | 1024.3
21688 kPa | 1024.2
21718 kPa | 1024.4
21754 kPa | 1024.3
21784 kPa | 1024.2
21814 kPa | 1024.3
21844 kPa | 1024.4
21881 kPa | 1024.2
21911 kPa | 1024.4
21942 kPa | 1024.4
21979 kPa | 1024.4
22009 kPa | 1024.5
22046 kPa | 1024.4
22077 kPa | 1024.5
22109 kPa | 1024.4
22140 kPa | 1024.5
22178 kPa | 1024.5
22210 kPa | 1024.6
22242 kPa | 1024.6
22279 kPa | 1024.6
22311 kPa | 1024.6
22343 kPa | 1024.7
22375 kPa | 1024.6
22414 kPa | 1024.6
22446 kPa | 1024.6
22478 kPa | 1024.6
22517 kPa | 1024.7
22550 kPa | 1024.8
22583 kPa | 1024.7
22622 kPa | 1024.8
22656 kPa | 1024.7
22688 kPa | 1024.7
22722 kPa | 1024.8
22761 kPa | 1024.8
22794 kPa | 1024.9
22828 kPa | 1024.9
22868 kPa | 1024.9
22901 kPa | 1024.9
22942 kPa | 1024.9
22975 kPa | 1024.9
23009 kPa | 1024.9
23043 kPa | 1025.1
23084 kPa | 1025
23119 kPa | 1025.1
23154 kPa | 1025
23195 kPa | 1025
23230 kPa | 1025.1
23265 kPa | 1025.2
23307 kPa | 1025.2
23342 kPa | 1025.2
23378 kPa | 1025.2
23413 kPa | 1025.2
23456 kPa | 1025.2
23492 kPa | 1025.3
23534 kPa | 1025.2
23572 kPa | 1025.1
23609 kPa | 1025.3
23646 kPa | 1025.4
23680 kPa | 1025.3
23726 kPa | 1025.4
23761 kPa | 1025.5
23798 kPa | 1025.6
23843 kPa | 1025.5
23878 kPa | 1025.4
23926 kPa | 1025.5
23961 kPa | 1025.6
23996 kPa | 1025.5
24033 kPa | 1025.7
24084 kPa | 1025.5
24123 kPa | 1025.6
24162 kPa | 1025.7
24202 kPa | 1025.6
24250 kPa | 1025.7
24285 kPa | 1025.8
24316 kPa | 1025.7
24353 kPa | 1025.8
24383 kPa | 1025.8
